Measurements as given in patent US9388175B2, “2-aniline-4-aryl substituted thiazole derivatives” (Janssen Pharmaceutica N.V., priority 2005, dated 2016).

molecular target: T1, hα7-wt nAChR stably expressed in the GH4C1 cell line (Homo sapiens, UniProt P36544); assay: Ca2+ flux imaging (FLIPR) of PAM activity with choline as agonist; assay type: cell-based; conditions: efficacy relative to 100 μM choline alone (defined as 1); peak fluorescence, fluo-4AM; compounds tested 0.1 μM to 30 μM, efficacy criterion at 10 μM
T1 construct: expressed in transfected cells
T1 sequence (P36544 23-502): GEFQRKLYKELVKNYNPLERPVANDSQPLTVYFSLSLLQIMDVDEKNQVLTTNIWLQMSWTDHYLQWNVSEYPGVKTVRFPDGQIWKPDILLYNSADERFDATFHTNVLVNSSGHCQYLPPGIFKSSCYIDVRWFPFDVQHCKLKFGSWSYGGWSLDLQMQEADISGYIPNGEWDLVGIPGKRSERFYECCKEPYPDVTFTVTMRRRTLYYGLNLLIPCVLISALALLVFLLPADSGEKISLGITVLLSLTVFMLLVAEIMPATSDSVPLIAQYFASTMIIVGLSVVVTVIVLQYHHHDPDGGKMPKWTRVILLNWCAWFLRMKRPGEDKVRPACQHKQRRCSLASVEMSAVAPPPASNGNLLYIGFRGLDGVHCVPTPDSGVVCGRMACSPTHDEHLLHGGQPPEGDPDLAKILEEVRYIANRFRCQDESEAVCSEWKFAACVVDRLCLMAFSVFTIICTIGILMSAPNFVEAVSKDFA
From the text: Stable expression in mammalian cells in general and rat GH4C1 cells in particular, of cDNA clones encoding the human α7 wild-type sequence (hα7-wt nAChR) and in which the coding region is placed downstream of a promoter results in the appearance of functional α7 nAChRs on the surface of the mammalian cells. This technique has provided a powerful means of assessing the function of α7 wild-type protein. Given the fact that the cation permeability of the α7 nicotinic receptor preferentially favours calcium, fluorescent imaging of Ca^2+ flux through the hα7-wt nAChR stably expressed in the GH4C1 cell line was used as a first means of assaying modulator activity of the compounds of the present invention.
a) Assay Buffer • Hanks buffered saline solution (HBSS, Invitrogen, Belgium), supplemented with 10 mM HEPES (Invitrogen, Belgium), CaCl2 to a final concentration of 5 mM, 0.1% Bovine serum albumin (Sigma-Aldrich NV, Belgium), 2.5 mM probenecid (Sigma-Aldrich NV, Belgium).
b) Calcium-Sensitive Dye—Fluo-4AM • Fluo-4AM (Molecular Probes, USA) was dissolved in DMSO containing 10% Pluronic acid (Molecular Probes, USA) to give a stock solution which was aliquoted and could be stored at −20° C. until later use. On the day of the experiment Fluo-4AM stock was defrosted and diluted in DMEM/F12 (Invitrogen, Belgium) containing 2.5 mM probenicid and 0.1% BSA to give a final concentration of 2 μM.
c) 96-well Plates • BD Biocoat poly-D-lysine 96-well black/clear bottom plates (BD Biosciences, Belgium)
d) Calcium Flux Measurement • A Fluorimetric Imaging Plate Reader (FLIPR, Molecular Devices Corporation, Sunnyvale, USA) was used to measure intracellular free-calcium flux signals
Monolayers of hα7-wt nAChR-expressing cells were grown in multi-well plates, in particular black-sided, transparent bottomed 96 well plates coated with poly-D-lysine for 24 hours prior to loading with a fluorescent calcium indicator, in a particular embodiment loading with fluo-3 or fluo-4AM for up to 90 minutes, in an even more particular embodiment loading with fluo-4AM for up to 90 minutes, and in a preferred embodiment loading with fluo-4AM for 60 minutes.
In a particular embodiment, the α7 nicotinic receptor agonist was choline, a more particular embodiment choline applied at a sub-maximal concentration of 100 μM.
A control response to choline was calculated on each plate from the difference in peak fluorescence in wells receiving either choline or assay buffer alone. Compounds of the present invention were tested at a concentration range from 0.1 μM to 30 μM.
The activity ranges are defined as follows; A denotes an activity range from 1.1 till 1.5, B denotes an activity range from 1.5 till 2.0, C denotes an activity range from 2.0 till 3.0, D denotes an activity range from 3.0 till 4.5 and E denotes an efficacy from at least 4.5.

SMILES | Activity Range
Brc1ccc(Nc2nc(-c3cnc4ccccn34)cs2)cn1 [Compound 45] | D (D denotes an activity range from 3.0 till 4.5)
COc1cc(OC)c(Nc2nc(-c3ccncc3)c(CN3CCCC3)s2)cc1Cl [Compound 99] | D (D denotes an activity range from 3.0 till 4.5)
Fc1ccc(Nc2nc(-c3cnc4sccn34)cs2)cc1C(F)(F)F [Compound 44] | C (C denotes an activity range from 2.0 till 3.0)
FC(F)(F)c1cccc(Nc2nc(-c3ccccc3)cs2)c1 [int. 1] | C (C denotes an activity range from 2.0 till 3.0)
Cc1ccc(Nc2nc(-c3cccnc3)cs2)cn1 [Compound 66] | D (D denotes an activity range from 3.0 till 4.5)
COc1ccc(-c2csc(Nc3cccc4[nH]ncc34)n2)c(OC)c1 [Compound 35] | C (C denotes an activity range from 2.0 till 3.0)
COc1ccc(Nc2nc(-c3ccc4c(c3)OCCO4)c(CO)s2)c(OC)c1 [Compound 95, 4-(2,3-dihydro-1,4-benzodioxin-6-yl)-2-[(2,4-dimethoxyphenyl)amino]-5-thiazolemethanol] | E (E denotes an efficacy from at least 4.5)
Cc1sc(Nc2ccc(C(F)(F)F)cc2)nc1-c1cnc2ccccn12 [Compound 85] | C (C denotes an activity range from 2.0 till 3.0)
COc1ccc(Nc2nc(-c3cccnc3)c(C)s2)cc1 [Compound 139] | D (D denotes an activity range from 3.0 till 4.5)
Cc1sc(Nc2ccc(C(F)(F)F)cc2)nc1-c1cccnc1 [Compound 87] | C (C denotes an activity range from 2.0 till 3.0)
FC(F)(F)c1cccc(Nc2nc(-c3ccoc3)cs2)c1 [Compound 74] | B (B denotes an activity range from 1.5 till 2.0)
Cc1ccc(Nc2nc(-c3cncc(Br)c3)c(CO)s2)cn1 [Compound 125] | E (E denotes an efficacy from at least 4.5)
Clc1ccc(Nc2nc(-c3cnc4cnccn34)cs2)cc1 [Compound 75] | C (C denotes an activity range from 2.0 till 3.0)
CCCc1nc(Nc2cccc(C(F)(F)F)c2)sc1C(=O)OCC [Compound 155] | E (E denotes an efficacy from at least 4.5)
FC(F)(F)c1cccc(Nc2nc(-c3cncnc3)cs2)c1 [Compound 73] | C (C denotes an activity range from 2.0 till 3.0)
OCc1sc(Nc2ccc(Cl)cc2Cl)nc1-c1ccccc1 [Compound 3] | D (D denotes an activity range from 3.0 till 4.5)
CNC(=O)CCc1sc(Nc2ccc(OC)cc2)nc1-c1ccnc(Cl)c1 [Compound 111] | E (E denotes an efficacy from at least 4.5)
OCc1sc(Nc2ccc(F)c(C(F)(F)F)c2)nc1-c1cccnc1 [Compound 91] | C (C denotes an activity range from 2.0 till 3.0)
CC(C)NC(=O)Cc1sc(Nc2cc(Cl)ccc2Cl)nc1-c1ccncc1 [Compound 161, 2-[(2,5-dichlorophenyl)amino]-N-(1-methylethyl)-4-(4-pyridinyl)-5-thiazoleacetamide] | E (E denotes an efficacy from at least 4.5)
Cc1cccc(Nc2nc(-c3cnc4sccn34)cs2)c1 [Compound 59] | B (B denotes an activity range from 1.5 till 2.0)
N#Cc1ccc(Nc2nc(-c3cnc4ccccn34)cs2)cc1 [Compound 69] | D (D denotes an activity range from 3.0 till 4.5)
Clc1ccc(Nc2nc(-c3ccccc3Cl)cs2)c(Cl)c1 [Compound 37] | C (C denotes an activity range from 2.0 till 3.0)

SMILES | Activity Range
CC(=O)NCc1sc(Nc2cccc(C(F)(F)F)c2)nc1-c1cccnc1 [Compound 4, N-[4-Pyridin-3-yl-2-(3-trifluoromethyl-phenylamino)-thiazol-5-ylmethyl]-acetamide] | D (D denotes an activity range from 3.0 till 4.5)
COc1ccc(Nc2nc(-c3ccncc3)c(CO)s2)c(OC)c1 [Compound 123] | D (D denotes an activity range from 3.0 till 4.5)
Cc1ccc(Nc2nc(-c3ccccc3)c(C(=O)Nc3cccnc3)s2)c(C)c1 [Compound 170, 5-Thiazolecarboxamide, 2-[(2,4-dimethylphenyl)amino]-4-phenyl-N-3-pyridinyl-] | E (E denotes an efficacy from at least 4.5)
Cc1sc(Nc2ccc(Cl)nc2)nc1-c1cccnc1 [Compound 88] | C (C denotes an activity range from 2.0 till 3.0)
Fc1cccc(-c2csc(Nc3cccc(C(F)(F)F)c3)n2)c1 [int. 12] | C (C denotes an activity range from 2.0 till 3.0)
COc1ccc(-c2csc(Nc3cccc(Cl)c3Cl)n2)c(OC)c1 [Compound 8] | C (C denotes an activity range from 2.0 till 3.0)
COc1ccc(OC)c(-c2csc(Nc3ccc(Cl)cc3Cl)n2)c1 [Compound 36] | C (C denotes an activity range from 2.0 till 3.0)
CC(=O)c1sc(Nc2cc(Cl)ccc2Cl)nc1C [Compound 110] | E (E denotes an efficacy from at least 4.5)
CCOC(=O)c1sc(Nc2cc(Cl)ccc2Cl)nc1C1CC1 [Compound 152] | E (E denotes an efficacy from at least 4.5)
Fc1ccc(Nc2nc(-c3cccnc3)c(CN3CCOCC3)s2)cc1C(F)(F)F [Compound 90, (4-Fluoro-3-trifluoromethyl-phenyl)-(5-morpholin-4-ylmethyl-4-pyridin-3-yl-thiazol-2-yl)-amine] | C (C denotes an activity range from 2.0 till 3.0)
c1ccn2c(-c3csc(Nc4ccc5c(c4)CCO5)n3)cnc2c1 [Compound 46] | C (C denotes an activity range from 2.0 till 3.0)
COc1cc(OC)c(Nc2nc(-c3ccc4c(c3)OCCO4)c(CC(N)=O)s2)cc1Cl [Compound 96, 2-[(5-chloro-2,4-dimethoxyphenyl)amino]-4-(2,3-dihydro-1,4-benzodioxin-6-yl)-5-thiazoleacetamide] | E (E denotes an efficacy from at least 4.5)
CSc1ccc(Nc2nc(-c3cnc4ccccn34)cs2)cn1 [Compound 49] | E (E denotes an efficacy from at least 4.5)
Cc1cncc(-c2nc(Nc3cccc(Cl)c3Cl)sc2CO)c1 [Compound 128] | E (E denotes an efficacy from at least 4.5)
CCOC(=O)c1sc(Nc2cc(Cl)ccc2Cl)nc1-c1ccccc1 [Compound 174, 5-Thiazolecarboxylic acid, 2-[(2,5-dichlorophenyl)amino]-4-phenyl-, ethyl ester] | E (E denotes an efficacy from at least 4.5)
Cc1ccc(-c2csc(Nc3cccc(C(F)(F)F)c3)n2)cn1 [Compound 68] | E (E denotes an efficacy from at least 4.5)
CNC(=O)Cc1sc(Nc2cc(Cl)c(OC)cc2OC)nc1-c1ccc2c(c1)OCCO2 [Compound 97, 2-[(5-chloro-2,4-dimethoxyphenyl)amino]-4-(2,3-dihydro-1,4-benzodioxin-6-yl)-N-methyl-5-thiazoleacetamide] | E (E denotes an efficacy from at least 4.5)
CCOC(=O)c1sc(Nc2ccc(OC)cc2)nc1C1CCCN(C(=O)OCc2ccccc2)C1 (centres unmarked) [Compound 104] | E (E denotes an efficacy from at least 4.5)
CCOC(=O)NCc1sc(Nc2cccc(C(F)(F)F)c2)nc1-c1cccnc1 [Compound 168] | E (E denotes an efficacy from at least 4.5)
CCCc1nc(Nc2cccc(C(F)(F)F)c2)sc1CO [Compound 117] | E (E denotes an efficacy from at least 4.5)
N#CCc1sc(Nc2cccc(C(F)(F)F)c2)nc1-c1ccccc1 [int. 3, [4-Phenyl-2-(3-trifluoromethyl-phenylamino)-thiazol-5-yl]-acetonitrile] | D (D denotes an activity range from 3.0 till 4.5)
COc1ccc(Nc2nc(-c3ccccc3)c(Br)s2)cc1 [Compound 93] | E (E denotes an efficacy from at least 4.5)
